According to PMC12040169 (PLOS Biology, 2025):

Assay: in vitro
Conditions: human, hela cells, % viability

| Structure (SMILES) | viability at 28.5 h, 10 µM | viability at 28.5 h, 10 µM (bulk resorufin, single well) |
| --- | --- | --- |
| COc1cc(Cl)cc(/C=N/Nc2nc(Nc3ccc(C)c(Cl)c3)nc(N3CCOCC3)n2)c1O [CBK262436] | 102% |  |
| CC1=NN(c2nc(-c3ccc(Br)cc3)cs2)C(=O)C1/N=N/c1ccccc1C(=O)O (centres unmarked) [CBK262440] | 91.8% |  |
| CCOc1nc(Nc2nc(-c3ccccc3)cs2)nc(OCC)n1 [CBK262442] | 98.1% |  |
| O=C(CN1CCSCC1)NNC(=S)Nc1ccccc1 [CBK262445] | 102% |  |
| CC12CCC(C(=O)N(CC(O)Cn3c4ccc(Br)cc4c4cc(Br)ccc43)C1=O)C2(C)C (centres unmarked) [CBK262449] | 94.4% |  |
| CCNC(=O)c1c(O)nc2ccccc2c1O [CBK262450] | 103% |  |
| N=c1n(CCN2CCCCC2)c2ccccc2n1CC(O)COc1ccccc1 (centres unmarked) [CBK262451C] | 88.5% |  |
| CCCC(=O)Nc1sc(C)c(C)c1C(=O)Nc1ccccc1OC [CBK262455] | 104% |  |
| CC(=O)c1cccc(NC(=O)/C(=C\c2cccnc2)NC(=O)c2ccc(C)cc2)c1 [CBK262456] | 88.6% |  |
| O=C(NNC1=C(C(=O)C(F)(F)F)CCC1)c1cccnc1 [CBK262459] | 89.1% |  |
| c1csc(CNc2nc3ccccc3n2CCN2CCOCC2)c1 [CBK262462] | 109% |  |
| Cc1ccc([N+](=O)[O-])cc1NC(=O)C1Cc2ccccc2CN1C(=O)OCc1ccccc1 (centres unmarked) [CBK262463] | 100% |  |
| CC1(c2ccccc2)CC(C)(C)N(C(=O)CSc2nc3ccccc3o2)c2ccccc21 (centres unmarked) [CBK262466] | 104% |  |
| C/C(=N\NC(=N)SC1CC(=O)N(c2ccc(C(=O)O)cc2)C1=O)c1cccs1 (centres unmarked) [CBK262471] | 103% |  |
| Cc1ccc(C2=NN(C(=N)SC3CC(=O)N(c4ccc(C(=O)O)cc4)C3=O)C(c3ccc(Cl)cc3)C2)cc1 (centres unmarked) [CBK262472] | 91.5% |  |
| Oc1ccc(/C=N/c2ccc(O)c(-c3nc4ccccc4s3)c2)cc1O [CBK262473] | 98.9% |  |
| CC(=O)CCc1oc2c([N+](=O)[O-])cccc2c1-c1ccc(C)o1 [CBK262476] | 89.4% |  |
| O=C(O)c1ccc(S(=O)(=O)NC2CCS(=O)(=O)C2)cc1 (centres unmarked) [CBK262477] | 110% |  |
| Cc1ccc(S(=O)(=O)N(CC(=O)N/N=C\c2ccc3c(c2)OCO3)c2cccc3cccnc23)cc1 [CBK262478] | 101% |  |
| CC(C)(C)c1cc(C(=O)Cn2c(=N)n(Cc3ccccc3)c3ccccc32)cc(C(C)(C)C)c1O [CBK262480B] | 97.5% |  |

| Structure (SMILES) | viability at 28.5 h, 10 µM | viability at 28.5 h, 10 µM (bulk resorufin, single well) |
| --- | --- | --- |
| N=c1n(CC(=O)c2ccc(Br)s2)c2ccccc2n1Cc1ccccc1 [CBK262482B] | 91.4% |  |
| O=C(O)c1cc(N/N=C/c2ccc(-c3ccc(Cl)c(C(=O)O)c3)o2)ccc1Cl [CBK262483] | 88.8% |  |
| Cc1ccc(C(=O)O/C(=C/c2nc3ccccc3n2Cc2cccc3ccccc23)c2ccc(C)cc2)cc1 [CBK262485] | 108% |  |
| CN1CCC(=NNC(=O)CN(c2cccc(Cl)c2)S(=O)(=O)c2ccccc2)CC1 [CBK262489] | 98% |  |
| NC(=O)CN(CC(N)=O)S(=O)(=O)c1ccccc1 [CBK262490] | 85.4% |  |
| O=C1Nc2ccc([N+](=O)[O-])cc2C1(O)N1CCCCC1 (centres unmarked) [CBK262496] | 80.6% |  |
| Cc1cccc(Nc2nc(N/N=C/c3c[nH]nc3-c3ccccc3)nc(N3CCC(C)CC3)n2)c1C [CBK262498] | 89.3% |  |
| O=C(CN(Cc1ccccc1)S(=O)(=O)c1ccc2c(c1)OCCO2)Nc1ccc2c(c1)OCCO2 [CBK262499] | 98.5% |  |
| COc1ccc(NC(=O)C2CN(S(=O)(=O)c3ccccc3)CCN2S(=O)(=O)c2ccccc2)cc1 (centres unmarked) [CBK262500] | 98.5% |  |
| NS(=O)(=O)c1ccc(Nc2nc(-c3cccs3)cs2)cc1 [CBK262502] | 96.2% |  |
| Cc1cc(NS(=O)(=O)c2ccc(Nc3nc(-c4cccs4)cs3)cc2)no1 [CBK262504] | 101% |  |
| COc1ccc([N+](=O)[O-])cc1-c1ccc(/C=N/NC(=O)Cn2nnnc2N)o1 [CBK262505] | 92.2% |  |
| O=C(CSc1ccc2ccccc2n1)NNC(=O)c1cccc([N+](=O)[O-])c1 [CBK262506] | 91.7% |  |
| CC1=CC(C)C(CN(CCC[N+](C)(C)C)C(=O)Nc2ccccc2)C(C)C1 (centres unmarked) [CBK262507I] | 84.3% |  |
| COc1ccc2c(c1)nc(SCC(O)c1ccccc1)n2C (centres unmarked) [CBK262508] | 97.6% |  |
| O=C(CC1Nc2ccccc2NC1=O)Nc1cccc(C(F)(F)F)c1 (centres unmarked) [CBK262510] | 99.6% |  |
| O=[N+]([O-])c1cnc(NCCCn2ccnc2)c([N+](=O)[O-])c1 [CBK262511] | 94.4% |  |
| O=C1CN(S(=O)(=O)c2ccc(NS(=O)(=O)c3ccc4ccccc4c3)cc2)CC(=O)N1 [CBK262513] | 95.4% |  |
| O=C(O)c1cc(S(=O)(=O)NC(CO)C(O)c2ccc([N+](=O)[O-])cc2)ccc1Br (centres unmarked) [CBK262515] | 104% |  |
| CC1(NC(=O)CC[N+]23CCN(CC2)CC3)CS(=O)(=O)CC1S(=O)(=O)[O-] (centres unmarked) [CBK262518] | 92% |  |

| Structure (SMILES) | viability at 28.5 h, 10 µM | viability at 28.5 h, 10 µM (bulk resorufin, single well) |
| --- | --- | --- |
| O=C1CC(c2ccccc2)CC(=O)C1=CNCc1ccccn1 (centres unmarked) [CBK262521] | 105% |  |
| O=C(Nc1ccc(Cc2ccncc2)cc1)c1ccc(CSc2ccc(Cl)cc2)cc1 [CBK262526] | 86.9% |  |
| COc1cc(C=C2C(=O)NC(=O)NC2=O)cc(I)c1OCc1ccc(Cl)cc1Cl [CBK262528] |  | 91.8% |
| O=C1c2cccc3cccc(c23)C(=O)N1CCN1CCN(S(=O)(=O)c2ccccc2[N+](=O)[O-])CC1 [CBK262530] | 97.7% |  |
| Cc1ccc2c(c1)c(-c1ccccc1)c(-c1ccccc1)n2CC(O)Cn1cnc(-c2ccccc2)c1-c1ccccc1 (centres unmarked) [CBK262531] | 72.7% |  |
| CC1(C)Cc2ccccc2C(NC(Cc2ccccc2)C(=O)O)=N1 (centres unmarked) [CBK262533] | 107% |  |
| O=C(Nc1cc(Oc2cccnc2)cc([N+](=O)[O-])c1)c1cc2nc(-c3ccco3)cc(C(F)(F)F)n2n1 [CBK262534] | 110% |  |
| O=C(O)CNC(=O)/C(=C/c1ccc(Br)cc1)NC(=O)c1ccc(Br)o1 [CBK262537] | 80.1% |  |
| Cc1cc2nc3s/c(=C\c4ccc(-c5ccc(O)c(C(=O)O)c5)o4)c(=O)n3c2cc1C [CBK262538] | 100% |  |
| O=[N+]([O-])c1cc2c(cc1C1NN=C(c3ccccc3)S1)OCO2 (centres unmarked) [CBK262540] | 112% |  |
| COc1nc(NCCN2CCOCC2)nc(Nc2ccc(Cl)cc2)n1 [CBK262541] | 102% |  |
| Cn1c(SCC(=O)c2ccc(O)c(O)c2)nnc1-c1ccccc1 [CBK262544] | 81.5% |  |
| N#C/C(=C\c1cn(Cc2ccc(Cl)cc2Cl)nc1-c1ccccc1)c1nc2ccccc2[nH]1 [CBK262545] | 87.3% |  |
| O=C(CSc1nc2ccccc2s1)OCc1ccc([N+](=O)[O-])cc1 [CBK262547] | 91.1% |  |
| CCOC(=O)c1c(NC(=O)CN2CCOCC2)sc2c1CCC2 [CBK262548] | 102% |  |
| O=c1/c(=C/c2ccc3c(c2)OCO3)sc2nc3cc(Br)cnc3n12 [CBK262550] | 106% |  |
| COCc1cc(C)nc(NCCO)c1C#N [CBK262556] | 96.6% |  |
| O=C(CCCN1C(=O)c2cccc3cccc(c23)C1=O)Nc1cccnc1 [CBK262560] | 81.5% |  |
| CC1(C)Cc2ccccc2C(NCC(=O)O)=N1 [CBK262562] | 83% |  |
